Where “and” joins values, the source holds several entries; their conditions need not be identical. Identical values can stand only once. Starred links: 1 amine or outer side, 2 acyl side, 3 side chain; linkers in the order of their positions; H or OH if unused. Positions of bridges follow the written chain, without caps; N, C: chain ends. Non-standard residues stand in square brackets, D forms with d. Residues, ends and D or L forms follow the SMILES beside them. *: point of attachment. X2 = Cc1sc(C(=O)[C@@H]2CCCN2[*:2])cc1C1=C(c2cc(C(=O)[*:1])sc2C)CCC1; Leu(3R-OH) = CC(C)[C@@H](O)[C@H](N)C(=O)O; Isobutyryl = CC(C)C(=O)*; Orn = NCCC[C@H](N)C(=O)O; Dab = NCC[C@H](N)C(=O)O
What was measured:
D. rerio embryos [1] = experiment: D. rerio embryotoxicity assay, direct application of ring-open photoform; type: in vivo, Danio rerio; conditions: direct application of 1 or ring-open photoform, zebrafish embryos at 3 dpf, final DMSO 0.2%, ambient light, value ± STD; for LD50 (open)^1h: 1 h incubation, 12–15 or 18–20 embryos; for LD50 (open)^3h: 3 h incubation; for LD50 (open)^24h: 24 h incubation
Protocol: (§1) To establish the assay for screening the photoswitchable peptides, we first studied the toxicity of our prototype 2 by varying the assay conditions. The parent peptide GS 1 was used as a control. […] We measured the doses causing the death of 50% embryos (LD50). We tested two different assay variations: in one version, the LD50(open) was determined after direct application of 1 or of the ring-open form of 2. In the other variant, the photoswitchable peptide was applied in the ring-closed photoform in the darkness, its LD50(closed) was recorded, and then in situ illumination (“photoactivation”) was applied to switch into the ring-open photoform and obtain the respective LD50(opened) values (see Figure 2 for the study design and the killing curves).
(§2) Figure 2 Two versions of the D. rerio embryotoxicity assay for DAE-modified peptides: timelines, peptide photostates, ages of larvae, and definitions of the measured characteristics. (A) Direct application of the non-photoswitchable parent GS 1 or of the ring-open photoform of our prototype 2, and the corresponding killing curves for 1 (C, top, black) and 2 (C, bottom, red). (B) “Photoactivation” assay: initial application of the ring-closed photoform, incubation in darkness, followed by in situ photoconversion into the ring-open(ed) photoform, with the corresponding killing curves for 1 (D, top) and 2 (D, bottom, green for ring-closed, red for ring-open isomers). The latter panel illustrates the “phototherapeutic safety window” (green arrow) as the difference in toxicity between the ring-closed and the ring-open isomers upon photoactivation.
(§3) Each time, 12–15 or 18–20 zebrafish embryos at 3 dpf were treated by applying the corresponding peptide dissolved in dimethyl sulfoxide (final dimethyl sulfoxide concentration was 0.2%). Double-concentrated peptide stock solutions (64–512 µg/mL) were prepared by weighing lyophilized peptides, dissolving in 10% dimethyl sulfoxide and constructing two-fold dilution series with ten–eleven dilution steps. In the photoconversion experiments, in order to prevent spontaneous photoswitching of the ring-closed peptides by vis light, zebrafish embryos and peptides were kept in the dark before the first readout, and the vials were sealed to avoid evaporation of the embryonic medium (E3) at prolonged incubation times. After the first screen, without exchanging any solution, the vials with embryos and ring-closed photoforms were exposed to intense illumination for 10 min (LUMATEC Superlite 410 light source, λ = 570 nm, irradiance approximately 20 mW/cm^2). Mortality was then determined under ambient light conditions at 1 h and 24 h after the illumination procedure.

D. rerio embryos [2] = experiment: D. rerio embryotoxicity "photoactivation" assay (ring-closed photoform in darkness, then in situ photoconversion); type: in vivo, Danio rerio; conditions: for LD50 (opened)^1h / LD50 (opened)^24h: after 24 h with ring-closed form in dark, in situ illumination 10 min, λ = 570 nm, approx. 20 mW/cm^2; for LD50 (opened)^1h: mortality 1 h after illumination, embryos 4 dpf; for LD50 (opened)^1h / LD50 (opened)^24h / LD50 (closed)^24h: value ± STD; for LD50 (opened)^24h: mortality 24 h after illumination, embryos 5 dpf at readout; for LD50(closed)^24h/LD50(open)^24h ratio: phototherapeutic safety window, ring-closed 24 h LD50 (dark) divided by ring-open 24 h LD50 (direct application); for LD50 (closed)^24h: ring-closed photoform applied to embryos at 3 dpf, 24 h in the dark, sealed vials, E3 medium, 0.2% DMSO
Protocol: as §1, §2, §3

Compound	LD50 (open)^1h (D. rerio embryos [1])	LD50 (open)^3h (D. rerio embryos [1])	LD50 (open)^24h (D. rerio embryos [1])	LD50 (opened)^1h (D. rerio embryos [2])	LD50 (opened)^24h (D. rerio embryos [2])	LD50(closed)^24h/LD50(open)^24h ratio (D. rerio embryos [2])	LD50 (closed)^24h (D. rerio embryos [2])
Cc1sc2cc1C1=C(CCC1)c1cc(sc1C)C(=O)[C@@H]1CCCN1C(=O)[C@H]([C@H](O)C(C)C)NC(=O)[C@H](CCCN)NC(=O)[C@H](C(C)C)NC(=O)[C@@H]1CCCN1C(=O)[C@@H](Cc1ccccc1)NC(=O)[C@H](C(C)C)NC(=O)[C@H](CCCN)NC(=O)[C@H](C(C)C)NC2=O [Peptide 14]	8.1 ± 2.0 µg/mL	6.2 ± 0.7 µg/mL	2.0 ± 0.0 µg/mL	9.1 ± 4.2 µg/mL	4.6 ± 2.0 µg/mL	25.2	50.4 ± 27.2 µg/mL
Cc1sc2cc1C1=C(CCC1)c1cc(sc1C)C(=O)[C@@H]1CCCN1C(=O)[C@H](CC(C)C)NC(=O)[C@H](CCCN)NC(=O)[C@H](C(C)C)NC(=O)[C@@H]1CCCN1C(=O)[C@@H](Cc1ccccc1)NC(=O)[C@H](CC(C)C)NC(=O)[C@H](CCCN)NC(=O)[C@H](CCCN)NC2=O [Peptide 5]	4.8 ± 2.2 µg/mL	2.8 ± 1.9 µg/mL	3.3 ± 0.7 µg/mL	8.1 ± 1.0 µg/mL	5.3 ± 0.5 µg/mL	2.5	8.1 ± 1.0 µg/mL
Cc1sc2cc1C1=C(CCC1)c1cc(sc1C)C(=O)[C@@H]1CCCN1C(=O)[C@H](C(C)C)NC(=O)[C@H](CCCN)NC(=O)[C@H](C(C)C)NC(=O)[C@@H]1CCCN1C(=O)[C@@H](Cc1ccccc1)NC(=O)[C@H](C(C)C)NC(=O)[C@H](CCCN)NC(=O)[C@H]([C@H](O)C(C)C)NC2=O [Peptide 12] ([Leu(3R-OH)][Orn]V[dF]PV[Orn]V; linker N-C via X2)	9.2 ± 1.1 µg/mL	6.7 ± 0.4 µg/mL	3.6 ± 0.5 µg/mL	6.2 ± 0.0 µg/mL	2.1 ± 1.0 µg/mL	21.4	77.0 ± 19.4 µg/mL
Cc1sc2cc1C1=C(CCC1)c1cc(sc1C)C(=O)[C@@H]1CCCN1C(=O)[C@H](CC(C)C)NC(=O)[C@H](CCCCN)NC(=O)[C@H](C(C)C)NC(=O)[C@H](CCCCN)NC(=O)[C@H](CC(C)C)NC(=O)[C@@H]1CCCN1C(=O)[C@@H](Cc1ccccc1)NC(=O)[C@H](C(C)C)NC(=O)[C@H](CCCCN)NC(=O)[C@H](CC(C)C)NC(=O)[C@H](CCCCN)NC(=O)[C@H](C(C)C)NC2=O [Peptide 16] (VKLKV[dF]PLKVKL; linker N-C via X2)	3.1 ± 1.0 µg/mL	3.1 ± 1.0 µg/mL	1.6 ± 0.0 µg/mL	5.6 ± 0.5 µg/mL	5.2 ± 0.5 µg/mL	3.8	6.0 ± 0.1 µg/mL
CC[C@H](C)[C@@H]1NC(=O)c2cc(c(C)s2)C2=C(CCC2)c2cc(sc2C)C(=O)[C@@H]2CCCN2C(=O)[C@H](CC(C)C)NC(=O)[C@H](CCCN)NC(=O)[C@H]([C@@H](C)CC)NC(=O)[C@@H]2CCCN2C(=O)[C@H]2CCCN2C(=O)[C@H](CC(C)C)NC(=O)[C@H](CCCN)NC1=O [Peptide 9] (I[Orn]L[dP]PI[Orn]L; linker N-C via X2)	2.0 ± 1.1 µg/mL	2.1 ± 0.8 µg/mL	1.6 ± 0.3 µg/mL	2.2 ± 0.5 µg/mL	0.8 ± 0.1 µg/mL	5.7	9.1 ± 2.7 µg/mL
Cc1sc2cc1C1=C(CCC1)c1cc(sc1C)C(=O)[C@@H]1CCCN1C(=O)[C@H](C(C)C)NC(=O)[C@H](CCCCN)NC(=O)[C@H](C(C)C)NC(=O)[C@@H](CCCCN)NC(=O)[C@H](CC(C)C)NC(=O)[C@@H]1CCCN1C(=O)[C@@H](Cc1ccccc1)NC(=O)[C@H](C(C)C)NC(=O)[C@H](CCCCN)NC(=O)[C@H](CC(C)C)NC(=O)[C@H](CCCCN)NC(=O)[C@H](C(C)C)NC2=O [Peptide 17] (VKLKV[dF]PL[dK]VKV; linker N-C via X2)	10.5 ± 5.8 µg/mL	10.5 ± 5.8 µg/mL	3.2 ± 0.2 µg/mL	9.9 ± 0.1 µg/mL	9.4 ± 0.7 µg/mL	3.1	9.9 ± 0.1 µg/mL
DAE-OrnN3-OLfPVOL (bicyclic or more) [Peptide 20, "click"-chemistry connected homodimer of DAE-modified macrocycle (series v)]	3.7 ± 1.9 µg/mL	3.7 ± 1.9 µg/mL	1.5 ± 0.0 µg/mL	8.4 ± 3.3 µg/mL	3.5 ± 0.6 µg/mL	7.1	10.7 ± 0.1 µg/mL
CC(C)C[C@@H]1NC(=O)[C@H](CCCN)NC(=O)[C@H](C(C)C)NC(=O)[C@@H]2CCCN2C(=O)[C@@H](Cc2ccccc2)NC(=O)[C@H](CC(C)C)NC(=O)[C@H](CCCN)NC(=O)[C@H](C(C)C)NC(=O)[C@@H]2CCCN2C(=O)[C@@H](Cc2ccccc2)NC1=O [Peptide 1, gramicidin S, reference compound] (cyclo(L[dF]PV[Orn]L[dF]PV[Orn]))	2.8 ± 2.7 µg/mL	2.0 ± 3.0 µg/mL	2.4 ± 0.2 µg/mL				
Cc1sc2cc1C1=C(CCC1)c1cc(sc1C)C(=O)[C@@H]1CCCN1C(=O)[C@H](C)NC(=O)[C@H](CCCN)NC(=O)[C@H](C(C)C)NC(=O)[C@@H]1CCCN1C(=O)[C@@H](Cc1ccccc1)NC(=O)[C@H](CC(C)C)NC(=O)[C@H](CCCN)NC(=O)[C@H](C)NC2=O [Peptide 4] (A[Orn]L[dF]PV[Orn]A; linker N-C via X2)	69.8 ± 10.5 µg/mL	40.6 ± 11.2 µg/mL	19.0 ± 1.3 µg/mL	51.0 ± 7.7 µg/mL	12.9 ± 1.9 µg/mL	10.4	
Cc1sc2cc1C1=C(CCC1)c1cc(sc1C)C(=O)[C@@H]1CCCN1C(=O)[C@H](C(C)C)NC(=O)[C@H](CCCN)NC(=O)[C@H](C(C)C)NC(=O)[C@@H]1CCCN1C(=O)[C@@H](Cc1ccccc1)NC(=O)[C@H](C(C)C)NC(=O)[C@H](CCCN)NC(=O)[C@H](CCNC(=O)C(C)C)NC2=O [Peptide 8] ([Dab](Isobutyryl)[Orn]V[dF]PV[Orn]V; linker N-C via X2)	12.0 ± 0.8 µg/mL	5.7 ± 0.4 µg/mL	3.9 ± 1.5 µg/mL	9.6 ± 5.6 µg/mL	3.0 ± 2.7 µg/mL	121 and 121.2	
